Assay results taken from US12616713B2, “Methods for enhancing vascular density” (priority 2016, dated 2026).
“Also recorded” adds a separate entry of the source.

Tests used:
[1] = system: HUVECs; assay: Tube formation assay, HUVECs after H2O2; type: cell-based, human; settings: H2O2 150 μM 1 h, NMN 500 μM 10 h
Method: Formation of tube networks was assessed as described before (Borradaile and Pickering, 2009, Aging Cell 8, 100-112). ECs were seeded at 10,000 cells per well in a 24-well plate (Corning) coated with 150 μL Cultrex reduced growth factor basement membrane extract (Trevigen). The cells were supplemented with C2C12 CM or EBM-2 medium containing VEGF (30 ng/mL) or FGF (30 ng/mL). NMN (0.5 mM) and NaHS (0.1 mM) were added to the media wherever mentioned. Following an 18 h-incubation, resulting tube networks were analyzed by light microscopy (Nikon Eclipse TiE). For tube formation assays with H2O2 treatment, cells were incubated with 150 μM H2O2 for 1 h before seeding and imaged after 10 h-incubation. The number of branch points and total length of tubule networks were quantified by ImageJ software.

[2] = system: C57BL/6J mice; assay: Metabolic chambers (CLAMS) oxygen consumption; type: in vivo, mouse
Method: Metabolic chambers (CLAMS™, Columbus Instruments, Columbus, OH) were used to perform whole-body measurements of metabolic function. Following acclimatization to the metabolic chambers, individually housed mice were monitored continuously over 48 h to determine oxygen consumption, carbon dioxide production, respiratory exchange ratio, energy expenditure, food intake, water intake and activity. Body composition (fat mass, lean mass, and total body water) was measured by EchoMRI (Echo MRI™ 900).

[3] = system: HUVECs; assay: Cell apoptosis assay, HUVECs exposed to H2O2; type: cell-based, human
Method: HUVECs were treated with PBS (vehicle), NaHS (100 μM), NMN (500 μM) or NMN+NaHS for 6 h, followed by exposure to H2O2 (600 μM) for another 4 h. After treatments, the number of apoptotic cells was determined using Annexin V-FITC apoptosis detection kit (eBioscience) as per manufacturer's instructions. Briefly, cells were collected by trypsinization and centrifugation at 1500 rpm for 5 minutes, followed by washing cell pellet twice with cold PBS and resuspending cell pellet in 1× Annexin-binding buffer. Then, 5 μL of Annexin-V FITC was added to 195 μL of cell suspension and incubated at room temperature for 15 min in the dark. After the incubation, cells were centrifuged, resuspended in 195 μL of 1× Annexin-binding buffer and then 5 μL of propidium iodide working solution was added. After mixing gently, the fluorescence intensity was detected with a flow cytometry (FACSCanto II Analyzer, BD Biosciences) at emission at 530 nm and 575 nm and excitation at 488 nm. […]

[4] = system: C57BL/6J mice; assay: Post-exercise blood lactate; type: in vivo, mouse; settings: 20-month old mice
Method: Mice were fasted for 6 h and blood glucose levels were measured by tail bleed (Accu Check Performa, Roche). Blood lactate was measured before and immediately after treadmill exercise training for 20 minutes at 15 meters/minute by tail bleed (Accutrend Plus, Roche). For VEGF analysis, whole blood was drawn from the retroorbital sinus under brief isoflurane anesthesia. The serum was collected and assayed for VEGF expression by ELISA (Eve Technologies, Canada). Urine was collected after a 2 h fast and analyzed for creatinine levels using a colorimetric assay kit (Cayman chemical, US) as per manufacturer's protocol.

[5] = system: C57BL/6J mice; assay: Skeletal muscle capillaries by CD31/laminin immunofluorescence in old mice; type: in vivo, mouse; settings: NMN 400 mg/kg/day, two months
Source text: SIRT1-iKO, SIRT1-Tg and SIRT1^STOP mice were described previously (Firestein et al., 2008, PLoS One 3, e2020; Price et al., 2012, Cell Metab 15, 675-690). Tie2Cre and Sirt1^flox/flox mice were purchased from Jackson Laboratory (Bar Harbor, ME). MCK-PGC-1α and MyogCre mice were gifts from Dr. Bruce Spiegelman (Dana Farber Cancer Center, MA) and Dr. Eric N. Olson (UT Southwestern, Dallas, TX), respectively. mT-STOP^flox/flox, Gfp mouse was generated in house by E.O.W., which consists of an allele driven by ubiquitous actin B promoter, which has loxP sites flanking membrane-targeted tandem dimer Tomato (mT) and transcriptional STOP cassette, followed by a GFP coding sequence. […] SIRT1-iKO mice were fed tamoxifen (360 mg/kg) diet for five weeks to elicit whole-body SIRT1 exon 4 excision as described previously (Price et al., 2012). […] NMN stock was changed twice per week and […]4137 was supplemented daily. Axitinib (30 mg/kg/day) was given via food and changed daily. Freshly isolated whole quadriceps and gastrocnemius muscle samples were mounted in OCT compound (Tissue-Tek), placed in an isopentane bath and slowly cooled in liquid nitrogen. Transverse sections at 20 μm-thickness were sectioned on a cryostat (Leica). The sections were fixed in pre-cooled acetone (-20° C.) for 10 min and washed with PBS. […] Slides were washed with PBST and then incubated with anti-rat Alexa Fluor 488-conjugated (Life Technologies) and anti-rabbit Alexa Fluor 594-conjugated (Life Technologies) antibodies diluted to 1:500 in blocking buffer for 2 h at room temperature. Slides were washed again with PBST and mounted with Fluoroshield with DAPI mounting medium (Sigma). Images were acquired using a confocal fluorescence microscope (Nikon A1). Quantification of capillaries and capillary density were performed using ImageJ software. TUNEL staining was performed in muscle sections using in situ BrdU-Red DNA fragmentation (TUNEL) assay kit (Abcam) as per manufacturer's protocol.

NC(=O)c1ccc[n+]([C@@H]2O[C@H](COP(=O)([O-])O)[C@@H](O)[C@H]2O)c1 [NMN, nicotinamide mononucleotide]
VEGF mediated angiogenesis (tube formation) after treatment with H2O2 [1]: promoted VEGF mediated angiogenesis
oxygen consumption higher than non-treated control mice ([2]; dark cycle): 23%
oxygen consumption higher than non-treated control mice ([2]; light cycle): 30%
percentage of cells undergoing early apoptosis ([3]; NMN 500 μM 6 h, then H2O2 600 μM 4 h): reduced the percentage of cells undergoing early apoptosis
reduction of apoptosis in response to H2O2 ([3]; NaHS 0.1 mM and/or NMN 0.5 mM 6 hrs, then H2O2 600 μM 4 hrs): 13%
post-exercise blood lactate [4]: 3.9 mmol/L
gastrocnemius capillarity ([5]; 20-month old WT mice): increased capillaries; also recorded: increased gastrocnemius capillarity
gastrocnemius capillarity ([5]; 20-month old tamoxifen-treated SIRT1-iKO mice): not in SIRT1-iKO mice; also recorded: no change
number of capillaries and capillary density (quadriceps, gastrocnemius) ([5]; old mice): restored
